# Results as given in BindingDB's records for doi:10.1111/j.1747-0285.2007.00535.x (Abbott Laboratories, 2007).
# Molecular target: Heat shock protein HSP 90-alpha (Homo sapiens, UniProt P07900)
# Test: FRET Assay
# Settings: pH 7.5; 25 °C
row,Compound,Ki
1,"Cc1cc(-c2ccc(Cl)cc2Cl)nc(N)n1 [HSP90 Inhibitor, 4]",170 nM
2,"Nc1nc(Cl)cc(-c2ccc(Cl)cc2Cl)n1 [HSP90 Inhibitor, 5]",60 nM
3,"Cc1cc(C=Cc2ccccc2/C=N/N2CCOC2=O)nc(N)n1 [HSP90 Inhibitor, 7]",4000 nM
